Reference: patent publication US20240425497A1, “Cbl-b Inhibitors and Methods of Use Thereof” (ARCUS BIOSCIENCES, INC., priority 2023, published 2024)

How the values were obtained:
[1] = molecular target: Cbl-b (Homo sapiens (Human), UniProt Q13191); assay: Cbl-b probe displacement HTRF binding assay; details: 0.4 nM biotinylated Cbl-b, 150 nM BODIPY probe
Method: The affinity with which compounds of the present disclosure bind to Cbl-b was assessed using probe displacement homologous time resolved fluorescence (HTRF) assays. The assays used a BODIPY™ conjugated probe (Example 54 from WO 2020264398) and biotinylated Cbl-b. The assays were performed in assay buffer consisting of 20 mM Hepes, 150 mM NaCl, 0.01% Triton X-100, 0.5 mM TCEP, 0.01% BSA. On the day of the assay, a 20 point, 1:2 master serial dilution of each compound was prepared in DMSO to span a final concentration range of 10 μM to 0 nM. Two hundred nanoliters of diluted compound was added to each well of a 384-well plate. Fifteen microliters of biotinylated-Cbl-b resuspended in assay buffer were added to each well and the plate incubated for 60 minutes at room temperature prior to addition of 5 μL of BODIPY™ probe in assay buffer. Final assay conditions included 0.4 nM of Cbl-b and 150 nM of BODIPY™ probe. After a further 15 minutes of incubation at room temperature, 5 μl of Streptavidin-Terbium cryptate reagent at 5-fold final concentration was added to each well of the 384-well plate. Binding of a probe to Cbl-b results in an increase of HTRF signal. HTRF signal was measured by Envision plate reader, while competition of a compound of the present disclosure with probe results in a decrease of signal. Percentage maximum activity in each test well was calculated based on DMSO (maximum activity, 0% displacement) and no protein control wells (baseline activity, 100% displacement). Binding affinity was determined from a dose response curve fitted using a standard four parameter fit equation. See Table 3 for data for compounds (Cbl-b Binding (IC50)).

[2] = test system: Jurkat cells; assay: IL-2 secretion assay in CD3/CD28-activated Jurkat cells (AlphaLISA); type: cell-based, human; details: CD3/CD28 activation, 24 h
Method: Certain compounds were also evaluated in an IL-2 secretion assay. On the day of the assay, a 16 point, 1:2 master serial dilution of each compound was prepared in Opti-MEM to span a final concentration range of […]. Assays were set up in CORNING® tissue culture-treated 384-well microplates containing 60 nL of each dilution. Jurkat cells grown in RPMI-1640 supplemented with 10% FBS, 1% Glutamax, and 1% Pen/Strep were collected, resuspended in Opti-MEM. 50,000 cells/well and added to the compound plates. After a short spin (1200 rpm for 1 min), the plates were incubated at 37° C. for 1 hour. The cells were activated by adding 15 μL of IMMUNOCULT™ Human CD3/CD28 T Cell Activator (STEMCELL Technologies) diluted in Opti-MEM. After 24 h of incubation at 37° C., aliquots of culture supernatants were transferred to OptiPlate-384 (PerkinElmer) microplates. The level of JIL-2 secretion in the supernatants was then determined using the IL-2 (human) AiphaLISA Detection Kit (PerkinElmer) according to the manufacturer's recommendations. The AiphaLISA signal was measured using an EnVision plate reader (PerkinElmer). EC50 values were determined by fitting the data to a standard 4-parameter logistic equation. See Table 3 for data for select compounds (IL-2 Secretion (EC50)).

Cbl-b, sequence (Q13191 whole entry, species assumed): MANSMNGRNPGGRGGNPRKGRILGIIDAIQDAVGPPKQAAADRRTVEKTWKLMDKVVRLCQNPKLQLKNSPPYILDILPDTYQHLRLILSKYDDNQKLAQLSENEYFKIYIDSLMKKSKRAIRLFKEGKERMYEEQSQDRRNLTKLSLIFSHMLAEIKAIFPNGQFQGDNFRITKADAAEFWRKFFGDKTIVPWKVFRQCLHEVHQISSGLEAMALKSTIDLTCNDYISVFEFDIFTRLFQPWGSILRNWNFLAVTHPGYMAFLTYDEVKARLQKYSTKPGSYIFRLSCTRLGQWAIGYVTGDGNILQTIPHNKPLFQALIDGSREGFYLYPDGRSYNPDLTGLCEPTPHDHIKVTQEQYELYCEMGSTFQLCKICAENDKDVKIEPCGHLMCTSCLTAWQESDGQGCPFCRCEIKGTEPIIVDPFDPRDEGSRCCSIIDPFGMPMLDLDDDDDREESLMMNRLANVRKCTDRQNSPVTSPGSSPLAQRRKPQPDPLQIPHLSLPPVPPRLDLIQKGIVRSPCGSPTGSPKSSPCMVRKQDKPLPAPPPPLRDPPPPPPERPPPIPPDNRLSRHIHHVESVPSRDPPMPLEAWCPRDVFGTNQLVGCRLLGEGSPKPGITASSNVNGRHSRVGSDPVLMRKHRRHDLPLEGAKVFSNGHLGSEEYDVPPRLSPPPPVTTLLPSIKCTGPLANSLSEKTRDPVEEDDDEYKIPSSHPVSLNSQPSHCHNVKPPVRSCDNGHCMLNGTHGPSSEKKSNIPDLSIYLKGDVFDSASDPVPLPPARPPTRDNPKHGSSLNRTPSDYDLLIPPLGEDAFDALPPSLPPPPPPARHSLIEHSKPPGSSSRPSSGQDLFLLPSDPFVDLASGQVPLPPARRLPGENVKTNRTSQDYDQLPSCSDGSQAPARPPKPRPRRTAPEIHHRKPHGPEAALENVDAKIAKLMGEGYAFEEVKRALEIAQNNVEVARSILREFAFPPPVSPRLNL

Structure (SMILES)	IC50 [1] [nM]	EC50 ([2]; Homo sapiens) [nM]	EC50 [2] [nM]
CC1CCN1C(=O)c1cc(F)ccc1-c1cc(C2CC2)nc(-n2cc(C3CC3)c3cc(CN4CCC[C@H](C)C4)[nH]c3c2=O)c1 (stereo partly drawn) [Example 15, 2-{[(S)-3-methyl-1-piperidyl]methyl}-4-cyclopropyl-6-(6-cyclopropyl-4-{4-fluoro-2-[(2-methyl-1-azetidinyl)carbonyl]phenyl}-2-pyridyl)-1,6-dihydro-1,6-diaza-7-indenone]	< 100	100 to 1000	–
CCOCCNC(=O)c1cc(F)ccc1-c1cc(C2CC2)nc(-n2cc(C3CC3)c3cc(CN4CCC[C@H](C)C4)[nH]c3c2=O)c1 [Example 2, 2-[2-cyclopropyl-6-[4-cyclopropyl-2-[[(3S)-3-methylpiperidin-1-yl]methyl]-7-oxo-1H-pyrrolo[2,3-c]pyridin-6-yl]pyridin-4-yl]-N-(2-ethoxyethyl)-5-fluorobenzamide]	100 to 1000	1000 to 5000	–
C[C@H]1CCCN(Cc2cc3c(C4CC4)cn(-c4cc(-c5ccc(F)cc5C(=O)NCC(F)(F)F)cc(C5CC5)n4)c(=O)c3[nH]2)C1 [Example 12, N-2,2,2-trifluoroethyl2-[2-(2-{[(S)-3-methyl-1-piperidyl]methyl}-4-cyclopropyl-7-oxo-1,6-dihydro-1,6-diaza-6-indenyl)-6-cyclopropyl-4-pyridyl]-5-fluorobenzamide]	100 to 1000	100 to 1000	–
C[C@H]1CCCN(Cc2cc3c(C4CC4)cn(-c4cc(-c5ccc(F)cc5C(=O)N(C)c5ccccc5)cc(C5CC5)n4)c(=O)c3[nH]2)C1 [Example 8, N-methyl-N-phenyl-2-[2-(2-{[(S)-3-methyl-1-piperidyl]methyl}-4-cyclopropyl-7-oxo-1,6-dihydro-1,6-diaza-6-indenyl)-6-cyclopropyl-4-pyridyl]-5-fluorobenzamide]	100 to 1000	> 5000	–
C[C@H]1CCCN(Cc2cc3c(C4CC4)cn(-c4cc(-c5ccc(F)cc5C(=O)N5CC(C#N)C5)cc(C5CC5)n4)c(=O)c3[nH]2)C1 [Example 16, 1-{2-[2-(2-{[(S)-3-methyl-1-piperidyl]methyl}-4-cyclopropyl-7-oxo-1,6-dihydro-1,6-diaza-6-indenyl)-6-cyclopropyl-4-pyridyl]-5-fluorobenzoyl}-3-azetidinecarbonitrile]	< 100	< 100	–
C[C@H]1CCCN(Cc2cc3c(C4CC4)cn(-c4cc(-c5ccc(F)cc5C(=O)N5CCCC5)cc(C5CC5)n4)c(=O)c3[nH]2)C1 [Example 4, 2-{[(S)-3-methyl-1-piperidyl]methyl}-4-cyclopropyl-6-(6-cyclopropyl-4-{4-fluoro-2-[(1-pyrrolidinyl)carbonyl]phenyl}-2-pyridyl)-1,6-dihydro-1,6-diaza-7-indenone]	< 100	100 to 1000	–
C[C@H]1CCCN(Cc2cc3c(C4CC4)cn(-c4cc(-c5ccc(F)cc5C(=O)N5CCC5)cc(C5CC5)n4)c(=O)c3[nH]2)C1 [Example 7, 2-{[(S)-3-methyl-1-piperidyl]methyl}-6-(4-{2-[(1-azetidinyl)carbonyl]-4-fluorophenyl}-6-cyclopropyl-2-pyridyl)-4-cyclopropyl-1,6-dihydro-1,6-diaza-7-indenone]	< 100	< 100	–
CCN(CC)C(=O)c1cc(F)ccc1-c1cc(C2CC2)nc(-n2cc(C3CC3)c3cc(CN4CCC[C@H](C)C4)[nH]c3c2=O)c1 [Example 5, N,N-diethyl2-[2-(2-{[(S)-3-methyl-1-piperidyl]methyl}-4-cyclopropyl-7-oxo-1,6-dihydro-1,6-diaza-6-indenyl)-6-cyclopropyl-4-pyridyl]-5-fluorobenzamide]	< 100	100 to 1000	–
O=C(c1cc(F)ccc1-c1cc(C2CC2)nc(-n2cc(C3CC3)c3cc(CN[C@H]4CCC[C@H]4O)[nH]c3c2=O)c1)N1CC(F)C1 [Example 17, 2-{[(1S,2R)-2-hydroxycyclopentylamino]methyl}-4-cyclopropyl-6-(6-cyclopropyl-4-{4-fluoro-2-[(3-fluoro-1-azetidinyl)carbonyl]phenyl}-2-pyridyl)-1,6-dihydro-1,6-diaza-7-indenone]	< 100	< 100	–

The remaining lines, values ahead:

IC50 [1] [nM]	EC50 ([2]; Homo sapiens) [nM]	EC50 [2] [nM]	Structure (SMILES)
< 100	100 to 1000	–	COC1CN(Cc2cc3ncn(-c4cc(-c5ccc(F)cc5C(=O)N5CC(F)(F)C5)cc(C5CC5)n4)c(=O)c3[nH]2)C1 [Example 43, 6-(6-cyclopropyl-4-{2-[(3,3-difluoro-1-azetidinyl)carbonyl]-4-fluorophenyl}-2-pyridyl)-2-[(3-methoxy-1-azetidinyl)methyl]-1,6-dihydro-1,4,6-triaza-7-indenone]
< 100	–	100 to 1000	N#Cc1c[nH]c2c(=O)n(-c3cc(-c4ccc(F)cc4C(=O)C4CC(F)C4)cc(C4CC4)n3)cc(C(F)(F)F)c12 (stereo not drawn) [Example 51, 6-[6-cyclopropyl-4-[4-fluoro-2-(3-fluorocyclobutanecarbonyl)phenyl]pyridin-2-yl]-7-oxo-4-(trifluoromethyl)-1H-pyrrolo[2,3-c]pyridine-3-carbonitrile]
< 100	100 to 1000	–	C[C@H]1CCCN(Cc2cc3c(C#N)cn(-c4cc(C#N)cc(-c5ccc(F)cc5C(=O)N5CC(F)C5)c4)c(=O)c3[nH]2)C1 [Example 22, 2-{[(S)-3-methyl-1-piperidyl]methyl}-6-{5-cyano-4′-fluoro-2′-[(3-fluoro-1-azetidinyl)carbonyl]-3-biphenylyl}-7-oxo-1,6-dihydro-1,6-diaza-4-indenecarbonitrile]
< 100	100 to 1000	–	O=C(c1cc(F)ccc1-c1cc(C2CC2)nc(-n2cc(C(F)(F)F)c3cc(CO)[nH]c3c2=O)c1)C1CC(F)C1 (stereo not drawn) [Example 52, 6-[6-cyclopropyl-4-[4-fluoro-2-(3-fluorocyclobutanecarbonyl)phenyl]pyridin-2-yl]-2-(hydroxymethyl)-4-(trifluoromethyl)-1H-pyrrolo[2,3-c]pyridin-7-one]
< 100	< 100	–	COC[C@H](C)NCc1cc2ncn(-c3cc(-c4ccc(F)cc4C(=O)N4CC(F)(F)C4)cc(C4CC4)n3)c(=O)c2[nH]1 [Example 34, 3-[6-cyclopropyl-4-[2-(3,3-difluoroazetidine-1-carbonyl)-4-fluorophenyl]pyridin-2-yl]-6-[[[(2S)-1-methoxypropan-2-yl]amino]methyl]-5H-pyrrolo[3,2-d]pyrimidin-4-one]
< 100	100 to 1000	–	CN1CCOCC1c1cc2c(C(F)(F)F)cn(-c3cc(-c4ccc(F)cc4C(=O)N4CC(F)C4)cc(C4CC4)n3)c(=O)c2[nH]1 (racemic) [Example 56, 6-[6-cyclopropyl-4-[4-fluoro-2-(3-fluoroazetidine-1-carbonyl)phenyl]pyridin-2-yl]-2-(4-methylmorpholin-3-yl)-4-(trifluoromethyl)-1H-pyrrolo[2,3-c]pyridin-7-one]
< 100	< 100	–	C[C@H]1CCCN(Cc2cc3c(C#N)cn(-c4cc(-c5ccc(F)cc5C(=O)N5CC(F)C5)cc(C5CC5)n4)c(=O)c3[nH]2)C1 [Example 21, 2-{[(S)-3-methyl-1-piperidyl]methyl}-6-(6-cyclopropyl-4-{4-fluoro-2-[(3-fluoro-1-azetidinyl)carbonyl]phenyl}-2-pyridyl)-7-oxo-1,6-dihydro-1,6-diaza-4-indenecarbonitrile]
< 100	< 100	–	C[C@H]1CCCN(Cc2nc3c(C(F)(F)F)cn(-c4cc(-c5ccc(F)cc5C(=O)N5CC(F)C5)cc(C5CC5)n4)c(=O)c3[nH]2)C1 [Example 48, 5-[6-cyclopropyl-4-[4-fluoro-2-(3-fluoroazetidine-1-carbonyl)phenyl]pyridin-2-yl]-2-[[(3S)-3-methylpiperidin-1-yl]methyl]-7-(trifluoromethyl)-3H-imidazo[4,5-c]pyridin-4-one]
< 100	100 to 1000	–	O=C(c1cc(F)ccc1-c1cc(C2CC2)nc(-n2cnc3cc(CN4CC5CCC4C5)[nH]c3c2=O)c1)N1CC(F)C1 (stereo not drawn) [Example 37, 6-(2-azabicyclo[2.2.1]heptan-2-ylmethyl)-3-[6-cyclopropyl-4-[4-fluoro-2-(3-fluoroazetidine-1-carbonyl)phenyl]pyridin-2-yl]-5H-pyrrolo[3,2-d]pyrimidin-4-one]
